Here are results for one molecule from patent US6660255B1, “Inhibition of gene transcription by polyamide DNA-binding ligands” (California Institute of Technology, priority 1997, dated 2003).

Entries after “also recorded” stand apart in the source; their conditions may differ. Read-outs that look alike come from different tables or passages of the source.

Assay [1] deals with 5′-TGCTGCA-3′ (the HIV-1 target sequence). It is filed as binding.
In assay [2] the test system is 5′-AGTACT-3′ site adjacent to the LEF-1 binding site. Put plainly: DNase footprint titration on HIV-1 enhancer/promoter fragment. The note with it: mismatch polyamide. On the procedure: (§1) White, S., Baird, E. E. & Dervan, P. B. describes the pairing rules for recognition in the minor groove of DNA by pyrrole-imidazole polyamides. […] Labeled DNA was incubated with polyamide (45 minutes) and digested with DNase I under single-hit conditions.
(§2) Regions of polyamide protection were determined by analysis of the digestion products on a 6% denaturing polyacrylamide sequencing gel. Storage phosphorimage analysis of the data was used to obtain dissociation constants for the binding reactions (using Kodak Storage Phosphor Screens and a Molecular Dynamics SF PhosphorImager). Recombinant human TBP (rhTBP) was obtained from Promega and was used in footprinting and gel mobility shift experiments as recommended. The reaction mixtures also contained 100 ng of poly dG-poly dC per 10 μL gel shift reaction or 50 μL footprinting reaction. For gel mobility shift assays, 6% polyacrylamide gels (20:1, acrylamide to bisacrylamide) contained 44 mM Tris-borate, pH 8.3, 1 mM EDTA, […] and 0.02% (v/v) NP-40. The same buffer was used for electrophoresis of 1 mm thick gels at 15 volts/cm for 2 hours at 4° C.

The subject of assay [3] is HIV-1 enhancer/promoter restriction fragment. Briefly: DNase footprint titration on HIV-1 enhancer/promoter fragment, other sites. It counts as binding. The settings on record: mismatch polyamide, 1-60 nM. From the text:
White, S., Baird, E. E. & Dervan, P. B. describes the pairing rules for recognition in the minor groove of DNA by pyrrole-imidazole polyamides. Chem. & Biol. 4, 569-578 (1997); Swalley, S. E., Baird, E. E. & Dervan, P. B. describe the sequence specificity of the β/β pairing Chem Eur. J. 3, 1600 (1997). […] For DNase I footprinting a 400-bp restriction fragment containing the HIV-1 enhancer and promoter regions was isolated from pHIV LTR-CAT plasmid DNA (obtained from Dr. K. A. Jones of The Salk Institute, La Jolla, Calif.) (P. L. Sheridan et al., describe the sequence composition of the plasmid pHIV LTR-CAT Genes Dev. 9, 2090 (1995)). Labeled DNA was incubated with polyamide (45 minutes) and digested with DNase I under single-hit conditions.
Regions of polyamide protection were determined by analysis of the digestion products on a 6% denaturing polyacrylamide sequencing gel. Storage phosphorimage analysis of the data was used to obtain dissociation constants for the binding reactions (using Kodak Storage Phosphor Screens and a Molecular Dynamics SF PhosphorImager). Recombinant human TBP (rhTBP) was obtained from Promega and was used in footprinting and gel mobility shift experiments as recommended. The reaction mixtures also contained 100 ng of poly dG-poly dC per 10 μL gel shift reaction or 50 μL footprinting reaction. […]

Assay [4] has as its system CMV major immediate early promoter. Briefly: CMV MIEP transcription in vitro (control template). It is filed as biochemical, human cytomegalovirus. The settings on record: H9/HeLa extract system. As to the method: The effects of polyamides 1 and 2 on HIV-1 transcription were tested in an in vitro transcription assay with a HeLa cell nuclear extract (FIG. 21A). The effects of the polyamides on basal transcription by RNA polymerase II was monitored with a nuclear extract prepared from HeLa cells (J. D. Dignam, P. L. Martin, B. S. Shastry, R. G. Roeder, Describe eukaryotic gene transcription with purified components Meth. Enzymol. 101, 582 (1983)). The human lymphloid cell line H9 (ATCC HTB 176) was grown in suspension culture in RPMI medium (Bio Whittaker) supplemented with 10% fetal calf serum (Tissue Culture Biological). Whole cell extracts of H9 cells in log phase growth were prepared by hypotonic lysis and contained 20 mg/ml protein, as determined by the Bradford reaction. Run-off RNA transcripts of ˜300 bases (CMV MIEP linked to a guanine-less cassette, plasmid pEIB-GL and ˜500 bases (pHIV LTR-CAT) where obtained with EcoRI-digested plasmid DNA (100 ng per 25 μL reaction).
Polyamide-DNA complexes were allowed to form at ambient temperature for 30 min prior to addition of the nuclear extract. […] RNA was purified by extraction with RNAzol (TelTest, Friendswood, Tex.) and analyzed by electrophoresis on a denaturing (8.3 M urea) 6% polyacrylamide gel. […]

Assay [5] relates to 5′-WGCWGCW-3′ sequences adjacent to the HIV-1 TATA element. Briefly: DNase I footprint titration at sites flanking the HIV-1 TATA element. It counts as binding. As to the method: The recognition sites for polyamide HIV-1 are of the form 5′-WGCWGCW-3″ (where W=A or T).
as §1, §2

Assay [6] has as its system rhTBP binding to the HIV-1 TATA element. Put plainly: DNase I footprinting, inhibition of TBP binding to HIV-1 LTR fragment. Details: species or system human. On the procedure: as §2
The subject of assay [7] is 5′-AGTGAA-3′ within the IE86 binding site. Also noted: species or system human cytomegalovirus. The note with it: 1-200 nM. The text has this:
These compounds together with purified recombinant IE86 protein were used in DNase I footprint experiments with a singly end-labeled restriction fragment derived from the CMV major immediate early promoter. […] A singly-end labeled restriction fragment was used in DNase I footprinting reactions. […] Lanes 1 and 18 represent a G+A sequencing ladder. […] The location of the TATA box and the start of transcription are indicated.

Regarding `CN(C)CCCNC(=O)CCNC(=O)c1cc(NC(=O)c2nc(NC(=O)CCNC(=O)c3cc(NC(=O)c4nc(NC(=O)CCCNC(=O)c5cc(NC(=O)c6nc(NC(=O)CCNC(=O)c7cc(NC(=O)c8nccn8C)cn7C)cn6C)cn5C)cn4C)cn3C)cn2C)cn1C` [polyamide 4, ImPy-β-ImPy-γ-ImPy-β-ImPy-β-Dp], the “Equilibrium association constants, 5′-aTGCTGCA-3′” value is 1.5 × 10^10 (0.3) M^a in assay [1] (Buffer A, 24° C.); 8.4 × 10^9 (2.3) M^a in assay [1] (Buffer A, 37° C.); 1.9 × 10^10 (0.6) M^a in assay [1] (Buffer B (140 mM KCl, 10 mM NaCl, 1 mM MgCl2, 1 mM spermine pH 7.2), 24° C.); 1.1 × 10^10 (0.2) M^a in assay [1] (Buffer B, 37° C.). Besides, in assay [1] (polyamide 4 vs 8), the “fold higher affinity relative to unlinked analog” value is roughly 6000 fold. The “fold reduced affinity for the 5′-AGTACT-3′ sequence” value in assay [2] was greater than 100 fold. In addition, the “binding to the HIV-1 enhancer/promoter fragment” value in assay [3] is “failed to detect any high affinity sites; also recorded: does not bind”. The “inhibition of CMV transcription” value in assay [4] is “fails to inhibit”. In assay [5] (HIV-1 TATA box region), the Ka was 2e+10 M⁻¹. For the same molecule, in assay [5] (mismatch control polyamide), the “fold reduced affinity relative to the match polyamide” value was 100 fold. Moreover, the Kd in assay [5] (sites flanking the TATA element, 5′-AGCTGCA-3′ / 5′-TGCTGCA-3′, read-out: apparent/equilibrium dissociation constant (Kd)) worked out at 0.05 nM. For the same molecule, in assay [6] (DNase I footprinting, 2.5-10 nM polyamide), the “inhibition of TBP binding to the HIV-1 TATA element” value is on record as “inhibited”. For the same molecule, the “polyamide concentration at which TBP binding is inhibited” value in assay [6] (five-fold excess of polyamide over DNA binding sites) is 2.5 nM. Further, the “footprint on the CMV fragment” value in assay [7] is “did not give a footprint”.
